Columns and labels:
[1] = system: DAOY; assay: Clonogenic assay in soft agar; assay type: cell-based; settings: equal number of viable cells seeded after 48 hours of treatment; 2 μM; vehicle 2.9%
Procedure: A clonogenic assay was used to determine whether cells capable of initiating anchorage-independent colonies were depleted by GSI-18. In vehicle-treated DAOY cultures, 2.9% of cells formed large colonies when seeded in soft agar (FIG. 7H). This number dropped to 0.26% when an equal number of viable cells were counted and seeded after 48 hours of treatment with GSI-18, and increased to 7.2% in the presence of constitutive Notch2 activation. Initiation of tumor xenografts was assayed next, a strategy used in several previous studies to examine the presence or absence of cancer stem cells (6-8). DAOY and DAOY:NICD2 cultures were treated with either 2 μM GSI-18 or vehicle alone, and the viable cells remaining after 48 hours counted using Trypan blue. […] To rule out the possibility that cells were alive but moribund following gamma-secretase inhibition, the experiment was repeated with cells counted after a recovery period.
(§1) The DAOY, PFSK, D283 and D425 Med cell lines were obtained from the American Type Culture Collection. […] Cell mass was measured using CellTITER assays according to the manufacturer's instructions (Promega, Madison, Wis.). Cell number and viability were assessed using the Guava PCA and Viacount reagent according to instructions (Guava Technologies, Heyward, Calif.). […] Soft agar assays were performed as previously described, with colonies counted using an automated reader (15).

[2] = system: DAOY; assay: Tumor engraftment in mice treated intraperitoneally after subcutaneous cell injection; assay type: in vivo, athymic nude mice; settings: 0.5 mg i.p. in DMSO for five consecutive days from day of xenograft initiation, four mice
Procedure: (§2) FIG. 8G is a graph plotting xenograft volume against number of days following injection of DAOY and DAOY:NIC2D cells in athymic nude mice, which were either treated with vehicle or 0.5 mg i.p. of GSI-18 for 5 consecutive days following subcutaneous tumor injection.
(§3) As a test of the requirement for ongoing Notch activity during tumor engraftment, animals were treated with GSI-18 after subcutaneously injecting DAOY and DAOY:NICD2 cells into their left and right flanks. A treatment group of four mice received intraperitoneal injections containing 0.5 mg GSI-18 in DMSO for five consecutive days, beginning on the day of xenograft initiation, while the control group was treated with vehicle alone.

[3] = system: DAOY:NICD2; assay: as above; assay type: in vivo, athymic nude mice; settings: 0.5 mg i.p. for five consecutive days
Procedure: as §2, §3

[4] = system: DAOY:NICD2; assay: Viable cell mass (CellTITER assay); assay type: cell-based; settings: 0.4 μM and 2 μM
Procedure: (§4) The fact that cultures grew 2-fold or more during the same time period that side population was essentially ablated by Notch pathway blockade provides additional support for the notion that medulloblatoma CSC are especially vulnerable to Notch signaling inhibition.
(§5) The DAOY, PFSK, D283 and D425 Med cell lines were obtained from the American Type Culture Collection. The low-passage MB line MB2 was derived from a tumor resected at Johns Hopkins Hospital. For treatment studies, cell were plated and allowed to grow overnight in MEM (Invitrogen, Carlsbad, Calif.) containing 10% FBS, then media was replaced the next morning with low serum (0.5% FBS) MEM containing GSI dissolved in DMSO. RNA and protein extractions, and all cell-based assays, were performed 48 hours after drug application unless otherwise noted. All experiments with error bars were performed in triplicate and shown as mean values with standard error unless otherwise noted. Cell mass was measured using CellTITER assays according to the manufacturer's instructions (Promega, Madison, Wis.). Cell number and viability were assessed using the Guava PCA and Viacount reagent according to instructions (Guava Technologies, Heyward, Calif.). Soft agar assays were performed as previously described (15) and scored either manually after 4 weeks or using as automated reader after 6 weeks. The constitutively active Akt stable cell line was made by transfecting DAOY cells with myristolated Akt (pCB6-IMy-Akt-HA) or control (pCB6+) plasmids (kind gifts from Susan J. Baker) and selecting and maintaining clones in 0.8 mg/ml G418. Soft agar assays were performed as previously described, with colonies counted using an automated reader (15).

[5] = system: MB cultures; assay: Viable cell mass (CellTITER assay); assay type: cell-based
Procedure: as §4, §5

[6] = system: DAOY; assay: Apoptosis by cleaved caspase 3 immunofluorescence in nestin-positive and nestin-negative cells; assay type: cell-based; settings: 2 μM, 48 hours
[7] = system: Hes1, a Notch pathway target gene; assay: Hes1 protein expression in GBM neurosphere cells; assay type: cell-based
Procedure: (A, B) CD133 is expressed in GBM neurosphere line HSR-GBM1a. (C) The total cell number was decreased upon GSI-18 treatment for 48 h in this line and in the subclones of the line. […] (E) Protein expression of Hes1, a Notch pathway target gene, was reduced upon GSI-18 treatment in GBM neurosphere cells.

[8] = system: DAOY:NICD2; assay: Flow cytometric analysis of CD133-positive fraction; assay type: cell-based; settings: DAOY:NICD2 expressing truncated Notch2; 2 μM
Procedure: Consistent with the hypothesis that Notch is important in CSC, gain or loss of pathway activity modulated the size of the CD133-expressing stem-like subpopulation (FIG. 4B). This fraction was elevated to 17.2% in DAOY cells stably transfected with a plasmid encoding the constitutively active Notch2 intracellular domain (DAOY:NICD2). In contrast, Notch pathway inhibition using GSI-18, a potent sulfonamide GSI (21), reduced the CD133-positive stem-like fraction […] to 3.3% (p<0.01). […] 2 μM GSI-18 was used in these experiments, as both mRNA and protein levels of the Notch pathway target Hes1 are reduced over 70% after 48 hours by this concentration of the drug (FIG. 4E).
as §1, with “Collection. The low-passage MB line MB2 was derived from a tumor resected at Johns Hopkins Hospital.” for “Collection.”, “Calif.). Soft agar assays were performed as previously described (15) and scored either manually after 4 weeks or using as automated reader after 6 weeks.” for “Calif.).”, “(15). […]” for “(15).”

SMILES: O=S(=O)(NC1C2CCC1Cc1ccccc1C2)c1cccs1 (stereo not drawn) [GSI-18, [11-endo]-N-(5,6,7,8,9,10-hexahydro-6,9-methanobenzo[α][8]annulen-11-yl)-thiophene-2-sulfonamide]
- cells forming large colonies in soft agar [1]: 0.26%
- engraftment in treated animals [2]: failed to engraft in three of the four
- tumor development in treated animals [3]: Tumors also developed
- growth (viable cell mass) under NICD2 expression [4]: rescued growth
- short-term increases in viable cell mass ([5]; 0 μM, 0.4 μM, and 2 μM): reduced in a dose-dependent fashion
- growth of cultures during Notch pathway blockade ([5]; same time period in which side population was ablated): ≥ 2 fold
- increase of apoptotic rate in nestin-positive cells (putative CSC) [6]: over 10 fold
- protein expression of Hes1 [7]: reduced
- sensitivity of CD133-positive fraction to the inhibitor [8]: insensitive to GSI-18

Reference: US20140227173A1, “CANCER TREATMENT WITH GAMMA-SECRETASE INHIBITORS” (The Johns Hopkins University, priority 2006, published 2014)
